Experimental data: patent US20130324606A1, “Ester Derivatives of Bimatoprost Compositions and Methods” (ALLERGAN, INC., priority 2011, published 2013)

Test system: human hair dermal papilla cells, HHDPC
Experiment: Cellular dielectric spectroscopy (CDS) in dermal papilla cells
Type: cell-based
Procedure: Cellular dielectric spectroscopy (CDS) was conducted in an assay of dermal papilla cells (i.e., human hair dermal papilla cells, HHDPC) with bimatoprost and Cmpds IVc and IVb. As known in the art, CDS is a real-time, non-invasive, label-free, high-throughput, cell-based assay which measures electrical cell impedance. Without wishing to be bound by any theory, it is believed that GPCR activation induces changes in cell morphology, cell-cell interaction, and cell adherence which manifest as a change in cell impedance.

CCCC(=O)O[C@H](/C=C/[C@@H]1[C@@H](C/C=C\CCCC(=O)NCC)[C@@H](O)C[C@H]1O)CCc1ccccc1 [Cmpd IVc, 15-butyryl bimatoprost]
change in cell impedance: not observed to provide a change in cell impedance | EC50 (cell impedance, tested range 10^−4 to 10^−13 mol/L): could not be determined
